Columns and labels:
TRPC4 channels = tested on: TRPC4 channels; parameters: method as in PubChem AID 434942 – SID 865888; conditions: ref PubChem AID 434942 – SID 865888; cited from earlier work
WT HEK 293 cells = assay: Carbachol-mediated [Ca2+]i response in WT HEK 293 cells; type: cell-based; conditions: carbachol (100 μM), n/N = 1/6
Experimental: To test the effect of AC1903 on TRPC4 channels, we initially attempted to use carbachol to activate TRPC4:C4 channels, in line with patch-clamp experiments reported by Zhou et al. ([29]). […] Therefore, we used the selective TRPC1/4/5 activator EA and the physiological TRPC4/5 activator S1P instead.
[Ca^2+]i recordings were carried out using the ratiometric Ca^2+ dye Fura-2. 24 h prior to experiments, cells were plated either onto black, clear bottom poly-D-lysine-coated 96-well plates (HEK cells) or clear 96-well plates (A498 cells, CHO cells) at 50,000 cells per well (HEK cells) or 20,000 cells per well (A498 cells, CHO cells). For tetracycline-inducible HEK T-REx cells, protein expression was induced with tetracycline (TRPC channels: 1 μg ml^−1; hPiezo1: 100 ng ml^−1) at this point. To load cells with the Fura-2 dye, media was removed and cells were incubated with standard bath solution (SBS) containing 2 μM Fura-2 acetoxymethyl ester (Fura-2 AM; Thermo Fisher Scientific) and 0.01% pluronic acid for 1 h at 37 °C. SBS contained (in mM): NaCl 130, KCl 5, glucose 8, HEPES 10, MgCl2 1.2 and CaCl2 1.5. After this incubation, cells were washed twice with fresh SBS. […]
Inhibition of G418-induced premature stop codon readthrough
Figure S7. […] Responses were calculated at 70-80 s compared to [Ca2+]i at baseline (0-55 s). […]

TRPC4–C1 = assay: [Ca2+]i recordings (Fura-2), concatemeric TRPC4–C1 in HEK T-REx cells; type: cell-based; conditions: activator EA (30 nM)
Experimental: Based on the findings described above, we wondered whether AC1903—which is typically used as a TRPC5 inhibitor at concentrations of 30–100 μM in cellular assays ([29], [56])—might have limited selectivity for TRPC5 channels and whether its effect on intracellular G418 levels and PTC readthrough might be the consequence of inhibition of other or multiple targets. All well-characterized TRPC channel inhibitors reported to date modulate multiple TRP(C) channels ([34], [35], [36]). […] Because limited data for the selectivity of AC1903 are available in the public domain, we decided to profile AC1903 against a selection of calcium-permeable cation channels by intracellular calcium ([Ca^2+]i) recordings using well-characterized cell lines and TRP channel activators ([46], [57], [58]), and the Ca^2+ indicator Fura-2. In these assays, cells (HEK 293, HEK T-REx, or CHO) overexpressing the relevant ion channel protein and loaded with Fura-2 AM (a cell-permeable precursor of Fura-2) were preincubated with various concentrations of AC1903 or vehicle (DMSO) for 30 min. Then, changes in ratiometric fluorescence (from background) were recorded upon addition of the respective ion channel activator.
HEK T-REx cells expressing tetracycline-inducible TRPC4, TRPC5, TRPC5–C1,TRPC4–C1, and hPiezo1 have been described previously ([46], [57], [59], [78]). […]

IC50 (TRPC4–C1): 3000 nM
Compound: c1ccc(Cn2c(NCc3ccco3)nc3ccccc32)cc1 [AC1903]
IC50 (TRPC4 channels): 600 nM | IC50 (WT HEK 293 cells): 20000 nM

Source: article PMC8808171, “Nonselective TRPC channel inhibition and suppression of aminoglycoside-induced premature termination codon readthrough by the small molecule AC1903” (The Journal of Biological Chemistry, 2022)
